Assay results reported in ChEMBL document CHEMBL2202991, “The effect of the length and flexibility of the side chain of basic amino acids on the binding of antimicrobial peptides to zwitterionic and anionic membrane model systems” (Bioorg Med Chem, 2012).
Activity calls are given as the source filed them. The calls are words filed in the database; no cut-off is given here. Non-standard residues stand in square brackets, D forms with d. Residues, ends and D or L forms follow the SMILES beside them. ξ: configuration not given here. Pro(3ξ,4ξ-(CH2)4) = O=C(O)[C@H]1NCC2CCCCC21; Tic = O=C(O)[C@@H]1Cc2ccccc2CN1; ξR = N=C(N)NCCCC(N)C(=O)O; Dab = NCC[C@H](N)C(=O)O; Dap = NC[C@H](N)C(=O)O

Assays:
Lipid bilayer [1] = experiment: Binding affinity to 4:1 POPC/POPG large unilamellar vesicle at 100 uM by circular dichroism analysis
Lipid bilayer [2] = experiment: Binding affinity to POPC large unilamellar vesicle assessed as lipid:compound molar ratio for complete interaction at 0.2 mM by isothermal titration calorimetric analysis
[3] = Binding affinity to zwitterionic dodecylphosphocholine micelle at 100 uM by circular dichroism analysis
Lipid bilayer [4] = experiment: Binding affinity to 4:1 POPC/POPG small unilamellar vesicle at 100 uM by circular dichroism analysis
Lipid bilayer [5] = experiment: Binding affinity to 4:1 POPC/POPG large unilamellar vesicle assessed as lipid:compound molar ratio required for integration into membrane at 200 uM by pseudo titration-based circular dichroism analysis
Lipid bilayer [6] = experiment: Binding affinity to POPC large unilamellar vesicle at 100 uM by pseudo titration based circular dichroism analysis
Lipid bilayer [7] = experiment: Binding affinity to 4:1 POPC/POPG large unilamellar vesicles assessed as calcein leakage at 4 to 20 uM measured up to 90 mins by fluorimetric analysis
Lipid bilayer [8] = experiment: Binding affinity to 4:1 POPC/POPG large unilamellar vesicle assessed as lipid:compound molar ratio for complete interaction at 0.2 mM by isothermal titration calorimetric analysis
Lipid bilayer [9] = experiment: Binding affinity to POPC large unilamellar vesicles assessed as calcein leakage at 4 to 20 uM measured up to 90 mins by fluorimetric analysis
Lipid bilayer [10] = experiment: Binding affinity to POPC small unilamellar vesicle at 100 uM by circular dichroism analysis
[11] = Binding affinity to anionic sodium dodecyl sulfate micelle at 100 uM by circular dichroism analysis
Lipid bilayer [12] = experiment: Binding affinity to POPC large unilamellar vesicle at 0.2 mM by isothermal titration calorimetric analysis
Lipid bilayer [13] = experiment: Binding affinity to POPC large unilamellar vesicle at 100 uM by circular dichroism analysis
Lipid bilayer [14] = experiment: Binding affinity to 4:1 POPC/POPG large unilamellar vesicles assessed as calcein leakage at 20 uM measured up to 90 mins by fluorimetric analysis
Lipid bilayer [15] = experiment: Binding affinity to POPC large unilamellar vesicle at 200 uM by pseudo titration based circular dichroism analysis
Lipid bilayer [16] = experiment: Binding affinity to POPC large unilamellar vesicles assessed as calcein leakage at 20 uM measured up to 90 mins by fluorimetric analysis
Lipid bilayer [17] = experiment: Binding affinity to POPC large unilamellar vesicle at 200 uM by circular dichroism analysis
Lipid bilayer [18] = experiment: Binding affinity to 4:1 POPC/POPG large unilamellar vesicle at 200 uM by pseudo titration-based circular dichroism analysis
Lipid bilayer [19] = experiment: Binding affinity to 4:1 POPC/POPG large unilamellar vesicles assessed as calcein leakage at 4 uM measured up to 90 mins by fluorimetric analysis
Lipid bilayer [20] = experiment: Binding affinity to 4:1 POPC/POPG large unilamellar vesicle assessed as lipid:compound molar ratio required for integration into membrane at 100 uM by pseudo titration-based circular dichroism analysis
Lipid bilayer [21] = experiment: Binding affinity to POPC large unilamellar vesicles assessed as calcein leakage at 4 uM measured up to 90 mins by fluorimetric analysis

SMILES	Activity (Lipid bilayer [1])	Activity (Lipid bilayer [2]) [molar ratio]	Activity [3]	Activity (Lipid bilayer [4])	Activity (Lipid bilayer [5]) [molar ratio]	Activity (Lipid bilayer [6])	Activity (Lipid bilayer [7])	Activity (Lipid bilayer [8]) [molar ratio]	Activity (Lipid bilayer [9])	Activity (Lipid bilayer [10])	Activity [11]	Kb (Lipid bilayer [12]) [M⁻¹]	Activity (Lipid bilayer [13])	Activity (Lipid bilayer [14]) [%]	Activity (Lipid bilayer [15])	Activity (Lipid bilayer [16]) [%]	Activity (Lipid bilayer [17])	also measured
CC(=O)NCC(=O)N[C@@H](Cc1ccccc1)C(=O)N1Cc2ccccc2C[C@H]1C(=O)N1CC2CCCCC2[C@@H]1C(=O)NCC(=O)N[C@H](CCCN)C(=O)N1Cc2ccccc2C[C@@H]1C(=O)N1CC2CCCCC2[C@H]1C(=O)NCC(=O)NC(Cc1ccccc1)C(=O)N1Cc2ccccc2C[C@@H]1C(=O)N1CC2CCCCC2[C@@H]1C(=O)NCC(=O)N[C@H](CCCN)C(=O)N1Cc2ccccc2C[C@@H]1C(=O)N[C@H](CCCN)C(=O)N[C@H](CCCN)C(=O)N[C@H](CCCN)C(=O)N[C@H](CCCN)C(N)=O (single isomer, unassigned)	Active	130	Active	Active	36	Active	Active	28	Active	Active	Active	191	Active	–	–	–	–	–
CC(=O)NCC(=O)N[C@@H](Cc1ccccc1)C(=O)N1Cc2ccccc2C[C@H]1C(=O)N1CC2CCCCC2[C@H]1C(=O)NCC(=O)N[C@@H](CCCCN)C(=O)N1Cc2ccccc2C[C@H]1C(=O)N1CC2CCCCC2[C@H]1C(=O)NCC(=O)N[C@@H](Cc1ccccc1)C(=O)N1Cc2ccccc2C[C@H]1C(=O)N1CC2CCCCC2[C@H]1C(=O)NCC(=O)N[C@@H](CCCCN)C(=O)N1Cc2ccccc2C[C@H]1C(=O)N[C@@H](CCCCN)C(=O)N[C@@H](CCCCN)C(=O)N[C@@H](CCCCN)C(=O)N[C@@H](CCCCN)C(N)=O (some centres not stated) (Ac-GF[Tic][Pro(3ξ,4ξ-(CH2)4)]GK[Tic][Pro(3ξ,4ξ-(CH2)4)]GF[Tic][Pro(3ξ,4ξ-(CH2)4)]GK[Tic]KKKK-NH2)	Active	120	Active	Active	39	–	–	30	–	Active	Active	211	–	40	Active	25	Active	–
CC(=O)NCC(=O)N[C@@H](Cc1ccccc1)C(=O)N1Cc2ccccc2C[C@H]1C(=O)N1CC2CCCCC2[C@H]1C(=O)NCC(=O)N[C@@H](CN)C(=O)N1Cc2ccccc2C[C@H]1C(=O)N1CC2CCCCC2[C@H]1C(=O)NCC(=O)N[C@@H](Cc1ccccc1)C(=O)N1Cc2ccccc2C[C@H]1C(=O)N1CC2CCCCC2[C@H]1C(=O)NCC(=O)N[C@@H](CN)C(=O)N1Cc2ccccc2C[C@H]1C(=O)N[C@@H](CN)C(=O)N[C@@H](CN)C(=O)N[C@@H](CN)C(=O)N[C@@H](CN)C(N)=O (some centres not stated) (Ac-GF[Tic][Pro(3ξ,4ξ-(CH2)4)]G[Dap][Tic][Pro(3ξ,4ξ-(CH2)4)]GF[Tic][Pro(3ξ,4ξ-(CH2)4)]G[Dap][Tic][Dap][Dap][Dap][Dap]-NH2)	Active	55	Active	Active	–	–	–	55	–	Active	Active	570	–	100	Active	100	Active	Activity (Lipid bilayer [18]): Active
CC(=O)NCC(=O)N[C@@H](Cc1ccccc1)C(=O)N1Cc2ccccc2C[C@H]1C(=O)N1CC2CCCCC2[C@H]1C(=O)NCC(=O)NC(CCCNC(=N)N)C(=O)N1Cc2ccccc2C[C@H]1C(=O)N1CC2CCCCC2[C@H]1C(=O)NCC(=O)N[C@@H](Cc1ccccc1)C(=O)N1Cc2ccccc2C[C@H]1C(=O)N1CC2CCCCC2[C@H]1C(=O)NCC(=O)N[C@@H](CCCNC(=N)N)C(=O)N1Cc2ccccc2C[C@H]1C(=O)N[C@@H](CCCNC(=N)N)C(=O)N[C@@H](CCCNC(=N)N)C(=O)N[C@@H](CCCNC(=N)N)C(=O)N[C@@H](CCCNC(=N)N)C(N)=O (some centres not stated) (Ac-GF[Tic][Pro(3ξ,4ξ-(CH2)4)]G[ξR][Tic][Pro(3ξ,4ξ-(CH2)4)]GF[Tic][Pro(3ξ,4ξ-(CH2)4)]GR[Tic]RRRR-NH2)	Active	150	Active	Active	–	Active	–	30	–	Active	Active	479	Active	90	–	60	–	Activity (Lipid bilayer [19]): 50%; Activity (Lipid bilayer [20]): 52 molar ratio; Activity (Lipid bilayer [21]): 60%
CC(=O)NCC(=O)N[C@@H](Cc1ccccc1)C(=O)N1Cc2ccccc2C[C@H]1C(=O)N1CC2CCCCC2[C@H]1C(=O)NCC(=O)N[C@@H](CCN)C(=O)N1Cc2ccccc2C[C@H]1C(=O)N1CC2CCCCC2[C@H]1C(=O)NCC(=O)N[C@@H](Cc1ccccc1)C(=O)N1Cc2ccccc2C[C@H]1C(=O)N1CC2CCCCC2[C@H]1C(=O)NCC(=O)N[C@@H](CCN)C(=O)N1Cc2ccccc2C[C@H]1C(=O)N[C@@H](CCN)C(=O)N[C@@H](CCN)C(=O)N[C@@H](CCN)C(=O)N[C@@H](CCN)C(N)=O (some centres not stated) (Ac-GF[Tic][Pro(3ξ,4ξ-(CH2)4)]G[Dab][Tic][Pro(3ξ,4ξ-(CH2)4)]GF[Tic][Pro(3ξ,4ξ-(CH2)4)]G[Dab][Tic][Dab][Dab][Dab][Dab]-NH2)	Active	130	Active	Active	22	Active	Active	20	Active	Active	Active	240	Active	–	–	–	–	–
